Experimental data as given in US10258658B2, “Compositions and methods for improved muscle metabolism” (Naturex SA, priority 2015, dated 2019).
Marks after values point to notes of the source that are not given here.

How the values were obtained:
[1] = system: S6K1 phosphorylation on threonine 389; experiment: S6K1 phosphorylation on threonine 389 in C2C12 myotubes (ELISA); format: cell-based, mice; details: LOW AMINO ACID (0.08 mM), Step 1; 100 ng/mL; 2 h; % of untreated control
Procedure: (§1) Growing cells were harvested and plated at a density of 170 000 cells per well in a 6 well plate. Cells were grown for 48 h in 5% CO2 at 37° C. After cells reached 80% confluence, the medium was replaced with differentiating medium (DMEM+2% FBS). After 5 days, myoblasts were fused into multinucleated myotubes. 1 h before starting the experiment, cells were incubated in Krebs medium to deprived cells of amino acids.
(§2) Cells were treated with five preparations of Rhaponticum plant extract at 3 concentrations in the presence of normal (0.8 mM) or low (0.08 mM) concentration of amino acids and with DMSO 0.002% for 2 h.
(§3) At the end of the experiment, cells were lysed in cell lysate buffer (100 μL per well) and centrifuged to isolate the soluble protein in supernatant. Proteins from this cellular assay were quantified using a colorimetric assay derived from LOWRY method. Therefore, 50 μg of total protein in 100 μL lysis buffer were transferred into microwell strips coated with pS6K1 or pAkt antibody and incubated 2 h at 37° C. […] Intensity of the yellow color was readable on a spectrophotometer at 450 nm and directly proportional to pS6K1 or Akt amount detected.
Results of phosphorylated T389 S6 kinase1 is expressed in absorbance per μg of protein (Abs/μg protein) after 2 hrs incubation and in % of untreated control condition (100%). […]

[2] = system: Akt phosphorylation on threonine 308; experiment: Akt phosphorylation on threonine 308 in C2C12 myotubes (ELISA); format: cell-based, mice; details: 100 ng/mL, 2 h
Procedure: as §1, §2, §3
Results of phosphorylated Akt is expressed in absorbance per μg of protein (Abs/μg protein) after 2 hrs incubation and in % of untreated control condition (100%). […]

C2C12 myotubes [3] = experiment: Protein synthesis (tritiated leucine incorporation) in C2C12 myotubes; format: cell-based, mice; details: 100 ng/mL
Procedure: For the protein synthesis assay, growing cells were harvested and plated at a density of 30 000 cells per well in a 24 well plate. Cells were grown for 48 h in 5% CO2 at 37° C. After cells reached 80% confluence, the medium was replaced with differentiating medium (DMEM+2% FBS). After 5 days, myoblasts were fused into multinucleated myotubes. Protein synthesis was determined by measuring the incorporation of the tritiated amino acid leucine. Briefly, 1 h prior leucine challenge, cells were incubated in amino acid free-medium. Then cells were incubated for 2 h30 in the presence of: radiolabelled leucine 5 μCi/mL and IGF1 100 ng/mL or plant extract in the presence of normal (0.8 mM) or low (0.08 mM) concentration of amino acids and with DMSO 0.002%
Five different preparations of Rhaponticum extract at three concentrations were incubated for 2 h30 in the presence of differentiated C2C12 myotubes and tritiated leucine (5 μCi). At the end of the incubation cells were lysed, total soluble proteins were quantified and level of tritiated leucine incorporated into cells was counted. Mean±SEM. *p<0.05; **p<0.01; ***p<0.001 vs control value.
For this study, C2C12 cells were obtained as described in EXAMPLE 12. Protein synthesis assay was performed as described in EXAMPLE 13, except that radiolabelled leucine 5 μCi/mL and IGF1 100 ng/mL, F0 extract at 1, 5 and 10 μg/ml or Rhodiola extract at 10, 104 and 417 μg/ml in the presence of normal (0.8 mM) concentration of amino acids and with DMSO 0.005% were used.
For this study, C2C12 cells were obtained as described in EXAMPLE 12. Protein synthesis assay was performed as described in EXAMPLE 13, except that radiolabelled leucine 5 μCi/mL and IGF1 100 ng/mL, F0 extract at 1 and 10 μg/ml, or Rhodiola extract at 1 and 10 μg/ml or combination of F0 with Rhodiola at different concentrations in the presence of normal (0.8 mM) concentration of amino acids and with DMSO 0.005% was used.
The C2C12 skeletal muscle cells were obtained as in EXAMPLE 12. The protein synthesis assay was performed as in EXAMPLE 13 and 14 except that radiolabelled leucine 5 μCi/mL and IGF1 100 ng/mL, F0 extract at 11.4 and 22.9 μg/ml, or F0 dry extract at 6.5 and 13 μg/ml or F1 extract at 13.4 and 26.7 μg/ml or F5′ extract at 1 and 1.9 μg/ml in the presence of normal (0.8 mM) concentration of amino acids and with DMSO 0.005%. At the end of the experiments supernatants were discarded and cells were lysed in 0.1N sodium hydroxide for 30 min. The cell soluble fraction-associated radioactivity was then counted and protein quantification was determined using the coloric Lowry method.
Each condition is tested in n=6. IGF1 100 ng/ml is used as a positive control of the protein synthesis stimulation and signaling. Results of protein synthesis are expressed in cpm/μL/2.5 hrs and in % of untreated control condition (100%).

[4] = system: myostatin gene expression; experiment: Myostatin gene expression in C2C12 myotubes (qPCR); format: cell-based, mice
Procedure: (§4) For the gene expression assay, growing cells were harvested and plated at a density of 30 000 cells per well in a 24 well plate. Cells were grown for 48 h in 5% CO2 at 37° C. After cells reached 80% confluence, the medium was replaced with differentiating medium (DMEM+2% FBS). After 5 days, myoblasts were fused into multinucleated myotubes.
(§5) Cells were treated with F0 extract at 1 and 10 μg/ml, or Rhodiola extract at 1 and 10 μg/ml or combination of F0 with Rhodiola at different concentrations, for 6 h. At the end of the experiment, C2C12 cells were lyzed in trizol solution and RNA was extracted and purified using the phenol/chloroform method. RNA amount after extraction was quantified by spectrophotometer (260 nm/280 nm/320 nm) and suspended at a final concentration of 1 μg/1 μL. […]
FIGS. 23a, 23b, 24a, and 24b: Effect of co-incubation of Rhaponticum F0 and Rhodiola extracts on myostatin gene expression in C2C12 myotubes. […] At the end of the incubation cells were lysed and RNA was extracted, converted into cDNA to perform a quantitative PCR. […]

atrogin gene expression [5] = experiment: Atrogin gene expression in C2C12 myotubes (qPCR); format: cell-based, mice; details: positive control in this experiment
Procedure: as §4, §5
Combination of Rhaponticum F0 and Rhodiola extracts at two different concentrations each were incubated for 6 h in the presence of differentiated C2C12 myotubes. At the end of the incubation cells were lysed and RNA was extracted, converted into cDNA to perform a quantitative PCR. […]

C2C12 myotubes [6] = details: low or normal concentration of amino acids; literature (Kazi, Broussard); cited from earlier work
atrogin gene expression [7] = details: 24 h incubation, 10 ng/mL; literature (Latres, Stitt); cited from earlier work

Substance: Insulin like growth factor-1 [IGF-1]
- pS6K [1]: 479%**
- Akt phosphorylation activated by a factor [2]: 1.6
- protein synthesis (C2C12 myotubes [3]; LOW AMINO ACID (0.08 mM), Step 1, 2 h30, % of untreated control): 145%**
- induction of protein synthesis vs untreated control (C2C12 myotubes [3]; step 1, low (0.08 mM) amino acids, DMSO 0.002%): +45%
- induction of protein synthesis vs untreated control (C2C12 myotubes [3]; step 1, normal (0.8 mM) amino acids, DMSO 0.002%): +21%
- induction of protein synthesis vs untreated control (C2C12 myotubes [3]; step 2a, normal (0.8 mM) amino acids, DMSO 0.005%): +27%
- induction of protein synthesis vs untreated control (C2C12 myotubes [3]; step 3, normal (0.8 mM) amino acids, DMSO 0.005%): +25%
- inhibitory effect on myostatin gene expression ([4]; internal data): 20-40%
- change in myostatin gene expression vs control ([4]; positive control in this experiment): −25%
- change in atrogin gene expression vs control (atrogin gene expression [5]): −59%
- increase in protein synthesis (C2C12 myotubes [6]): 20-50%
- inhibition of atrogin gene expression (atrogin gene expression [7]): around 40%
